Assay results from article PMC5386545, “Madecassic acid, the contributor to the anti-colitis effect of madecassoside, enhances the shift of Th17 toward Treg cells via the PPARγ/AMPK/ACC1 pathway” (Cell Death & Disease, 2017).
pKi: −log10 of the molar value.

How the values were obtained:
PPARγ [1] = target: T1, PPARγ (Homo sapiens, UniProt P37231); test: LanthaScreen TR-FRET competitive binding assay
T1 construct: gene PPARG; GST-fused human PPARγ-LBD
T1 sequence (P37231 231-505 limits assumed): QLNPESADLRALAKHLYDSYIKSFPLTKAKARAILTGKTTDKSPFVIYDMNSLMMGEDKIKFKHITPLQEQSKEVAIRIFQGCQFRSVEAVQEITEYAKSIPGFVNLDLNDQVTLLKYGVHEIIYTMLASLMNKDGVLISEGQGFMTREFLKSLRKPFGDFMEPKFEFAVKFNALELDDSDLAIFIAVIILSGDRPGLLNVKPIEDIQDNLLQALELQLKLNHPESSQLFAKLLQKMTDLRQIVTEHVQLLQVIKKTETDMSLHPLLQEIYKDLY

PPARγ [2] = target: T1, PPARγ; test: LanthaScreen TR-FRET competitive binding assay (reference agonist; value not given)

SMILES | pKi (PPARγ [1]) | LanthaScreen TR-FRET competitive binding assay (reference agonist); no value prin (PPARγ [2])
C[C@H]1[C@H](C)CC[C@]2(C(=O)O)CC[C@]3(C)C(=CC[C@@H]4[C@@]5(C)C[C@@H](O)[C@H](O)[C@@](C)(CO)[C@@H]5[C@H](O)C[C@]43C)[C@H]12 [madecassic acid] | 5.79 | 
CN(CCOc1ccc(CC2SC(=O)NC2=O)cc1)c1ccccn1 (centres unmarked) [rosiglitazone] |  | Madecassic acid or rosiglitazone was cultured with GST-fused human PPARγ-LBD, terbium-labeled anti-GST antibody and a fluorescently labeled PPAR ligand
